In assay [1] the target is T1, MAGL (Mus musculus, UniProt O35678).
T1 construct: Proteomes (mouse brain membrane fraction or cell lysates); from tissue; host or cells: mouse brain membrane fraction or cell lysates
T1 sequence (O35678 1-303): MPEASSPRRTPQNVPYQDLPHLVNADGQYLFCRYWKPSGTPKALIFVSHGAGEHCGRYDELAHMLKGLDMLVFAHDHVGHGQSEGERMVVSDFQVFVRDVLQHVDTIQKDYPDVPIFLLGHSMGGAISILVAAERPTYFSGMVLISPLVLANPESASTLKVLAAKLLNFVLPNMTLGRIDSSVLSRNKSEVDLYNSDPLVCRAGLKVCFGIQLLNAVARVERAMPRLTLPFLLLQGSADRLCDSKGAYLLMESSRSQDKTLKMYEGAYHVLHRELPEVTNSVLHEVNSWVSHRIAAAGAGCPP
The assay is described as follows: Mouse brain proteomes from inhibitor treated mice, MAGL inhibition. In kind it is in vivo. The settings on record: 5 mg/kg oral gavage, C57Bl/6J mouse brain, 4 h following administration; read-out: MAGL % inh. 5 mg/kg (mouse). As to the method:
Preparation of Mouse Brain Proteomes from Inhibitor Treated Mice.
Inhibitors were administered to wild-type C57Bl/6J by oral gavage in a vehicle of polyethylene glycol. Each animal was sacrificed 4 h following administration and brain proteomes were prepared and analyzed according to previously established methods (See Niphakis, M. J., et al. (2011) ACS Chem. Neurosci. and Long, J. Z., et al. Nat. Chem. Biol. 5:37-44).

The target of assay [2] is T2, ABHD6 (Mus musculus, UniProt Q8R2Y0).
T2 construct: Proteomes (mouse brain membrane fraction or cell lysates); from tissue; host or cells: mouse brain membrane fraction or cell lysates
T2 sequence (Q8R2Y0 1-336): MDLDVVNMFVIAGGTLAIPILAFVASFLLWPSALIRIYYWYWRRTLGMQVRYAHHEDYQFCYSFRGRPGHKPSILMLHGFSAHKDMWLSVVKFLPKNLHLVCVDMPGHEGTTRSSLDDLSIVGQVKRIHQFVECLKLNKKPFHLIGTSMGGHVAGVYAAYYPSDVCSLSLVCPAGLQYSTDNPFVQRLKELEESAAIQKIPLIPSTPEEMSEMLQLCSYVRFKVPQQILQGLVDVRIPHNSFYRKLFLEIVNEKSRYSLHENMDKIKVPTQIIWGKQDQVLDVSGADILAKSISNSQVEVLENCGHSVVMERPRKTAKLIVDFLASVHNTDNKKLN
The assay is described as follows: In vitro competitive activity-based protein profiling (mouse), ABHD6. Type of assay: biochemical. The settings on record: 1 μM inhibitor, mouse brain membrane fraction or cell lysates; read-out: ABHD6 % inh. 1 μM (mouse). As for the experimental part:
(§1) In Vitro Competitive Activity-Based Protein Profiling (Mouse).
(§2) Proteomes (mouse brain membrane fraction or cell lysates) (50 μL, 1.0 mg/mL total protein concentration) were preincubated with varying concentrations of inhibitors at 37° C. After 30 min, FP-Rh (1.0 μL, 50 μM in DMSO) was added and the mixture was incubated for another 30 min at 37° C. Reactions were quenched with SDS loading buffer (50 μL-4×) and run on SDS-PAGE. Following gel imaging, serine hydrolase activity was determined by measuring fluorescent intensity of gel bands corresponding to MAGL and ABHD6 using ImageJ 1.49 k software. Data from this assay is shown in Table 1 (% inhibition at 1 μM).

Assay [3] has as its target T3, MAGL (Homo sapiens, UniProt Q99685).
T3 construct: Proteomes (human prefrontal cortex or cell membrane fractions); from tissue
T3 sequence (Q99685 1-303): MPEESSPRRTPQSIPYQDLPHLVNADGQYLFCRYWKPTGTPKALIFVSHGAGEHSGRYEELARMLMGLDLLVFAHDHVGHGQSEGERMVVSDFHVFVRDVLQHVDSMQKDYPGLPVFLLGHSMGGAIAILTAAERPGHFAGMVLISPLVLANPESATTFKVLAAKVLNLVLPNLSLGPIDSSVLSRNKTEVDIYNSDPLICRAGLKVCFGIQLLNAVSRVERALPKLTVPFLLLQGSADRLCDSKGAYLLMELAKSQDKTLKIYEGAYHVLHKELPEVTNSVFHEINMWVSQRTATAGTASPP
The assay is described as follows: In vitro competitive activity-based protein profiling (human), MAGL. The settings on record: for inhibition at 1 µM: 1 μM inhibitor, human proteome, 30 min preincubation at 37° C, read-out: MAGL % inh. 1 μM (human); for IC50: human PC3. In kind it is biochemical. As to the method: (§3) In Vitro Competitive Activity-Based Protein Profiling (Human).
(§4) Proteomes (human prefrontal cortex or cell membrane fractions) (50 μL, 1.0-2.0 mg/mL total protein concentration) were preincubated with varying concentrations of inhibitors at 37° C. After 30 min, FP-Rh or JW912 (1.0 μL, 50 μM in DMSO) was added and the mixture was incubated for another 30 min at room temperature. Reactions were quenched with SDS loading buffer (15 μL-4×) and run on SDS-PAGE. Following gel imaging, serine hydrolase activity was determined by measuring fluorescent intensity of gel bands corresponding to MAGL and ABHD6 using ImageJ 1.49 k software.

In assay [4] the target is T1, MAGL. Put plainly: In vitro competitive activity-based protein profiling (mouse), MAGL. Type of assay: biochemical. The note with it: for inhibition at 1 µM: 1 μM inhibitor, mouse brain membrane fraction or cell lysates, read-out: MAGL % inh. 1 μM (mouse). As for the experimental part: as §1, §2
Assay [5] deals with T4, ABHD6 (Homo sapiens, UniProt Q9BV23).
T4 construct: Proteomes (human prefrontal cortex or cell membrane fractions); endogenous in cells; human prefrontal cortex
T4 sequence (Q9BV23 1-337): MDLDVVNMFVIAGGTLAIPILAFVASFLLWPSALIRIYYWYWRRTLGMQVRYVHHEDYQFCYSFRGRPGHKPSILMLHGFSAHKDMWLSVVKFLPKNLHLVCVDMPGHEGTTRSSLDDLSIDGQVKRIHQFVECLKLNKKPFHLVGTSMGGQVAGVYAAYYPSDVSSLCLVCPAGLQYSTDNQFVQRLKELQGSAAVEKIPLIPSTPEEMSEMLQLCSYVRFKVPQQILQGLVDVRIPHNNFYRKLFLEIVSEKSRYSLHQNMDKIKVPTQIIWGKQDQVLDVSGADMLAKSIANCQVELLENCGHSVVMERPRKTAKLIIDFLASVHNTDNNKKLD
Put plainly: In vitro competitive activity-based protein profiling (human), ABHD6. Type of assay: biochemical. The settings on record: human PC3. As to the method: as §3, §4

Some results are limits rather than exact numbers.

With `O=C(O)CN1CCN(c2cc(C(F)(F)F)ccc2CN2CCN(C(=O)OC(C(F)(F)F)C(F)(F)F)CC2)CC1` [Example 42], in assay [1], the inhibition at 5 mg/kg was 25 to 50%. Further, the figures for the inhibition at 1 µM in assay [2], in assay [3] and in assay [4] were 0 to 25%, at least 75% and at least 75%, respectively. In addition, the IC50 (as a rule, the concentration that inhibits the measured activity by half) in assay [4] (mouse proteome) was at most 0.1 µM.

For `CCCC1(C(=O)O)CCN(c2cc(CN3CCN(C(=O)OC(C(F)(F)F)C(F)(F)F)CC3)cc(C(F)(F)F)c2)CC1` [Example 52, 1-(3-((4-(((1,1,1,3,3,3-hexafluoropropan-2-yl)oxy)carbonyl)piperazin-1-yl)methyl)-5-(trifluoromethyl)phenyl)-4-propylpiperidine-4-carboxylic acid], the inhibition at 1 µM in assay [2], in assay [3] and in assay [4] was at least 75% each time. The IC50 in assay [3] is at most 0.1 µM; in assay [5], 0.1 to 1 µM.

Regarding `O=C(O)C1CCN(c2cc(C(F)F)ccc2CN2CCN(C(=O)OC(C(F)(F)F)C(F)(F)F)CC2)CC1` [Example 72, 1-(5-(difluoromethyl)-2-((4-(((1,1,1,3,3,3-hexafluoropropan-2-yl)oxy)carbonyl)piperazin-1-yl)methyl)phenyl)piperidine-4-carboxylic acid], the inhibition at 1 µM in assay [2], in assay [3] and in assay [4] was at least 75% throughout. In addition, the IC50 in assay [3] is at most 0.1 µM; in assay [5], 1 to 10 µM.

In the case of `O=C(O)CN1CCCC1C1CCN(c2cc(Cl)ccc2CN2CCN(C(=O)OC(C(F)(F)F)C(F)(F)F)CC2)CC1` (stereo not drawn) [Example 34, 2-(2-(1-(5-Chloro-2-((4-(((1,1,1,3,3,3-hexafluoropropan-2-yl)oxy)carbonyl)piperazin-1-yl)methyl)phenyl)piperidin-4-yl)pyrrolidin-1-yl)acetic Acid], the inhibition at 1 µM in assay [2] was 50 to 75%; in assay [3] it was at least 75%; in assay [4], at least 75%. The values for the half-inhibitory concentration (IC50) in assay [3] and in assay [5] were at most 0.1 µM and 1 to 10 µM, respectively.

As for `O=C(O)CN1CCN(C(=O)c2cc(C(F)(F)F)ccc2CN2CCN(C(=O)OC(C(F)(F)F)C(F)(F)F)CC2)CC1` [Example 28, 2-(4-(2-((4-(((1,1,1,3,3,3-Hexafluoropropan-2-yl)oxy)carbonyl)piperazin-1-yl)methyl)-5-(trifluoromethyl)benzoyl)piperazin-1-yl)acetic Acid], the inhibition at 1 µM is 25 to 50% in assay [2], at least 75% in assay [3] and at least 75% in assay [4]. For the same compound, the half-inhibitory concentration (IC50) in assay [3] was in the range of 0.1 to 1 µM; in assay [5], 1 to 10 µM.

In the case of `O=C(OC(C(F)(F)F)C(F)(F)F)N1CCN(Cc2ccc(C(F)(F)F)c(C3(C(=O)O)CCCC3)c2)CC1` [Example 37, 1-(5-((4-(((1,1,1,3,3,3-hexafluoropropan-2-yl)oxy)carbonyl)piperazin-1-yl)methyl)-2-(trifluoromethyl)phenyl)cyclopentane-1-carboxylic acid], the inhibition at 1 µM in assay [2], in assay [3] and in assay [4] was at least 75% each time. Also, the IC50 in assay [3] is at most 0.1 µM; in assay [5] it was 0.1 to 1 µM.

Take `CC1(C(=O)O)CCCN(c2cc(CN3CCN(C(=O)OC(C(F)(F)F)C(F)(F)F)CC3)cc(C(F)(F)F)c2)C1` (stereo not drawn) [Example 56, 1-(3-((4-(((1,1,1,3,3,3-hexafluoropropan-2-yl)oxy)carbonyl)piperazin-1-yl)methyl)-5-(trifluoromethyl)phenyl)-3-methylpiperidine-3-carboxylic acid]: the inhibition at 1 µM was 0 to 25% in assay [2], at least 75% in assay [3] and at least 75% in assay [4]. Further, the IC50 in assay [3] and in assay [5] was at most 0.1 µM throughout.

Take `O=C(OC(C(F)(F)F)C(F)(F)F)N1CCN(Cc2cc(Cl)cc(C3(C(=O)O)CCCC3)c2)CC1` [Example 32, 1-(3-Chloro-5-((4-(((1,1,1,3,3,3-hexafluoropropan-2-yl)oxy)carbonyl)piperazin-1-yl)methyl)phenyl)cyclopentane-1-carboxylic Acid]: the inhibition at 1 µM in assay [2], in assay [3] and in assay [4] was at least 75% throughout. Besides, the IC50 was at most 0.1 µM in assay [3] and 0.1 to 1 µM in assay [5].

As to `O=C(O)CNCC1CCN(c2cc(C(F)(F)F)ccc2CN2CCN(C(=O)OC(C(F)(F)F)C(F)(F)F)CC2)CC1` [Example 61, ((1-(2-((4-(((1,1,1,3,3,3-hexafluoropropan-2-yl)oxy)carbonyl)piperazin-1-yl)methyl)-5-(trifluoromethyl)phenyl)piperidin-4-yl)methyl)glycine], the inhibition at 1 µM in assay [2] was 0 to 25%; in assay [3] it was at least 75%; in assay [4], at least 75%. The values for the IC50 in assay [3] and in assay [5] were at most 0.1 µM and 1 to 10 µM, respectively.

For `CC1(C(=O)O)CCN(c2cc(CN3CCN(C(=O)OC(C(F)(F)F)C(F)(F)F)CC3)cc(C(F)(F)F)c2)CC1` [Example 29, 1-(3-((4-(((1,1,1,3,3,3-Hexafluoropropan-2-yl)oxy)carbonyl)piperazin-1-yl)methyl)-5-(trifluoromethyl)phenyl)-4-methylpiperidine-4-carboxylic Acid], the inhibition at 1 µM in assay [2], in assay [3] and in assay [4] was at least 75% throughout. Also, the IC50 in assay [3] and in assay [5] was at most 0.1 µM each time.

Take `O=C(O)C1COCCN1c1cc(C(F)(F)F)ccc1CN1CCN(C(=O)OC(C(F)(F)F)C(F)(F)F)CC1` (stereo not drawn) [Example 71, 4-(2-((4-(((1,1,1,3,3,3-hexafluoropropan-2-yl)oxy)carbonyl)piperazin-1-yl)methyl)-5-(trifluoromethyl)phenyl)morpholine-3-carboxylic acid]: the inhibition at 1 µM was 0 to 25% in assay [2], at least 75% in assay [3] and at least 75% in assay [4]. For the same compound, the IC50 in assay [3] fell in the range of 0.1 to 1 µM; in assay [5], 1 to 10 µM.

Turning to `O=C(O)[C@H]1CCCN(c2cc(C(F)(F)F)ccc2CN2CCN(C(=O)OC(C(F)(F)F)C(F)(F)F)CC2)C1` [Example 80, (S)-1-(2-((4-(((1,1,1,3,3,3-hexafluoropropan-2-yl)oxy)carbonyl)piperazin-1-yl)methyl)-5-(trifluoromethyl)phenyl)piperidine-3-carboxylic acid], the inhibition at 1 µM in assay [2] was 25 to 50%; in assay [3], at least 75%; in assay [4], at least 75%. Moreover, the IC50 in assay [3] was at most 0.1 µM; in assay [5], 0.1 to 1 µM.

Source of the values: patent publication US10899737B2, “Piperazine carbamates and methods of making and using same” (Lundbeck La Jolla Research Center, Inc., priority 2016, dated 2021).
